A word on the melting point: it is the temperature of the solid-liquid transition. The compound `CCCCC(=O)Oc1cccc(NC(=O)CC(C)=O)c1` had a melting point of 65 °C.
With `CCCCn1c(COCC)nc2c(N)nc3ccccc3c21`, the melting point lay within 139 to 140 °C.
`CC(C)(C)[C@@H](CO)NS(=O)(=O)c1ccc(Cl)cc1`: the melting point lay in the range of 128 to 130 °C.
In turn, `C[C@H]1c2ccccc2N(C(=O)CCl)[C@H]1C` (relative stereo) returned a melting point of 83 to 84 °C.
`Cc1nc(NC(=O)c2ccccc2OC(F)(F)F)sc1C(=O)NCc1ccccc1` had a melting point of 140 to 141 °C.
With `CCOC1Nc2c(ccc(OC)c2O)C(=O)N2CCCC12` (stereo not given), the melting point was 155 to 158 °C.
For `COc1ccc(C(=O)COc2ccc(C(=O)O)c(O)c2)cc1C12CC3CC(CC(C3)C1)C2`, the melting point was 225 to 226 °C.
Turning to `COC(=O)Nc1nc2ccccc2n1C(=O)NC1CC(C)(C)CC(C)(N(C)C(=O)n2c(NC(=O)OC)nc3ccccc32)C1` (stereo not given), the melting point lay within 82 to 83 °C.
For the compound `ClC1(Cl)C(c2ccccc2)C1(c1ccccc1)c1ccccc1` (stereo not given), the melting point lay within 106 to 107 °C.
Under `CCOC(=O)c1ccc(S(C)(=O)=O)c(-c2cc(C)no2)c1C` stands 83 to 86 °C; under `O=C(NC1CCCCC1)N1C(=O)C2(CCCCC2)NC12CCCCC2`, 106 to 109 °C; under `CCS(=O)(=O)N[C@H](C(=O)NCc1ccc(OCC#Cc2ccc(Cl)cc2)c(OC)c1)C(C)C`, 162 to 163 °C.
In turn, `Cc1oc(-c2ccccc2)nc1COc1ccc(Cc2nc(CCC(=O)O)c(-c3ccccc3)s2)cc1` returned a melting point of 119 to 120 °C.
With `CC(C)(O)Cn1cnc2c(N)nc3ccccc3c21`, the melting point fell in the range of 270 to 272 °C.
As for `Cc1noc(-c2ccc(S(C)(=O)=O)cc2)c1-c1ccc(-c2cscn2)cc1`, the figure is 119 °C; as for `O=C(O)CCC1CCN(C(=O)OCc2ccc([N+](=O)[O-])cc2)CC1`, 98 to 99 °C; as for `CN(C)C(=O)CCc1ccc(NC(=O)Nc2ccc(Cl)c(C(F)(F)F)c2)c(-c2nnn[nH]2)c1`, 184 to 189 °C.
In turn, `CC1O[C@@](Cn2cncn2)(c2ccc(Cl)cc2Cl)[C@@H](C)N1S(C)(=O)=O` (relative stereo) came in with a melting point of 160 to 170 °C.
Consider `O=C(c1ccccc1)N1CCc2cc(S(=O)(=O)N3CCN(c4cccc(Cl)c4)CC3)ccc21`, for which the melting point fell in the range of 200 to 201 °C.
Turning to `CNCC(=O)N[C@@H](CCCNC(=N)N)C(=O)N[C@@H](CCCNC(=N)N)C(=O)N[C@@H](C)P(=O)(O)O`, the melting point came to 220 °C.
The compound `CNC(Cc1ccccc1)c1nc(C(=O)NCc2ccccc2)no1` (stereo not given) showed a melting point of 128 °C.
Under `Cc1cc(-c2nnc3c4ccccc4c(OCc4ncn(C)n4)nn23)on1` stands 270 to 272 °C; under `CCCCONc1ncn(-c2c(C)cccc2C)c(=O)n1`, 144 to 145 °C; under `C#CC1(O)CCC2C3CC(C)C4=CC(=O)CCC4C3CCC21CC` (stereo not given), 148 to 151 °C.
With `CC(C)c1nc(COC(=O)N[C@H](C(=O)N[C@@H](Cc2ccccc2)C[C@H](O)[C@H](Cc2ccccc2)NC(=O)OCc2cncs2)C(C)C)cs1`, the melting point lay in the range of 142 to 145 °C.
`Cc1ccc(C(=O)Nc2ccc3c(c2NC(=O)c2ccc(C)cc2)C(=O)c2ccccc2C3=O)cc1` registered a melting point of 227 to 229 °C.
`CCSc1cc(C)nc(SCC)c1NC(=O)CCCCCCCCSc1nc2cccc(C(F)(F)F)c2o1` gave a melting point of 115 to 116 °C.
As to `CCCCCCCCCCCCCCCCSCC(CNS(=O)(=O)CCCI)n1nnc(C)n1` (stereo not given), the melting point lay within 50 to 51 °C.
As for `CN(C)c1ncc(C(=O)CNCC(O)c2cccc(OC(=O)C(C)(C)C)c2)c(-c2ccccc2)n1` (stereo not given), the melting point was 145 to 146 °C.
The compound `CCC(=O)C(Cc1cc(C#N)cc(C#N)c1)C(=O)CC` had a melting point of 67 to 69 °C.
`O=c1[nH]ncc2[nH]c(-c3ccc(OC(F)F)c(OC4CC4)c3)c(Cl)c12` gave a melting point of 281 to 283 °C.
The compound `O=C1CCCC(n2nc(-c3c(-c4ccccc4)nn4ccccc34)ccc2=O)C1` (stereo not given) came in with a melting point of 126 to 127 °C.
Turning to `O=c1c(Br)c(Br)cnn1Cc1ccccc1`, the melting point lay within 95 to 96 °C.
Under `CN1CC(CCN2CCN(c3ccc(Cl)cc3)CC2)OC1=O` (stereo not given) stands 113 to 114 °C; under `CCC(=S)C1=C(C)NC2=C(C1)C(=O)c1ccccc12`, 240 °C.
The compound `O=C1SC(Cc2ccc(OCCON=Cc3ccc(-c4ccccc4)cc3)cc2)C(=O)N1C(c1ccccc1)(c1ccccc1)c1ccccc1` (stereo not given) returned a melting point of 157 to 159 °C.
As for `CCOC(=O)C(=O)c1nsc(NC(=O)c2ccccc2)n1`, the figure is 178 to 180 °C; as for `CCc1[nH]n(C2CCCC2)c2nc(-c3cccc(OC4CCCCN(C)C4)c3)nc(=O)c1-2` (stereo not given), 195 to 196 °C; as for `O=C(c1ccc(Cl)cc1)c1ccc([N+](=O)[O-])cc1Cl`, 117 to 118 °C.
Under `CO/C=C(/C(=O)OC)c1ccccc1Oc1ncnc(Cl)n1` stands 137 to 140 °C.
On to `Cc1cccc(-c2nc3cccnn3c2-c2ccnc(NCCN3CCCCC3)c2)c1`, for which the melting point fell in the range of 143 to 144 °C.
The compound `CCCOc1ccccc1-c1nc2cc([N+](=O)[O-])ccc2c(=O)[nH]1` registered a melting point of 138 °C.
`Cc1ccc(-c2ccc3c(c2)C=C(C(=O)Nc2ccc(-c4ccccn4)cc2)CCO3)cc1`: the melting point lay in the range of 228 to 229 °C.
`NCCOC(c1ccccc1)(c1ccccc1)c1ccccc1`: the melting point fell in the range of 87 to 89 °C.
Take `CC1(C)OCCN1C(=O)C=Cc1ccc(F)cc1`: the melting point fell in the range of 106 to 108 °C.
Under `CCN1C(=O)c2sccc2N(C)c2ncccc21` stands 119 to 120 °C.
Consider `N#Cc1c[nH]c(-c2ccccc2)c1`, for which the melting point fell in the range of 150 to 151 °C.
Under `Cc1cccc(N2CCN(CCCCc3ccc(C(CCC(=O)O)=NO)cc3)CC2)c1` stands 175 to 177 °C.
`COC(C)(C)c1ccc(-c2cc(-c3c[nH]nc3-c3cccc(C)n3)ccc2F)nc1`: the melting point was 168 to 169 °C.
In turn, `CCc1noc(-c2ncn(-c3cccc(OCc4ccccc4)c3)c2COC)n1` came in with a melting point of 63 to 64 °C.
Compound `CC(=O)Nc1nc(-c2ccccc2)c(CCOC(C)=O)c2ncnn12` showed a melting point of 79 to 80 °C.
On to `Cc1cc([N+](=O)[O-])ccc1OC1CCN(C(=O)OC(C)(C)C)CC1`, for which the melting point fell in the range of 82 to 83 °C.
`COC(=O)N[C@@H]1CN2C(=O)N(c3cc(Cl)nc(Cl)c3)C(=O)[C@@]2(Cc2ccc(OC(F)(F)F)cc2)C1` had a melting point of 120 °C.
`CN(C)c1cccc(OC(=O)NC2C(=O)N(CC34CC5CC(CC(C5)C3)C4)c3ccccc3N(c3ccccc3)C2=O)c1` (stereo not given) showed a melting point of 130 to 132 °C.
Take `COc1cc(-c2nc(-c3ccc(N(C)C)cc3)c(C)[nH]2)ccc1OC(C)=O`: the melting point lay within 253 to 256 °C.
As to `Fc1cccc2c(OCCc3ccc(Cl)cc3)ccnc12`, the melting point lay within 139 to 140 °C.
`O=C1NC(=O)C(Nc2ccc3ccccc3c2)S1` (stereo not given): the melting point lay within 200 to 201 °C.
As for `O=C(Nc1ccccc1)O[C@@H]1CN=C(c2ccccc2)O[C@H]1c1ccccc1` (racemic), the figure is 111 °C; as for `COCc1c(C=O)ncc2[nH]c3cccc(Cc4ccc(Cl)cc4)c3c12`, 248 to 250 °C; as for `COc1ccnc2[nH]cc(-c3ccnc(N)n3)c12`, above 210 °C.
Under `CSc1ccc2ncccc2c1N` stands 88.5 to 90.5 °C.
Consider `Cc1cccc2ncc(C(=O)NC3CCCCCC3)c(=O)n12`, for which the melting point lay in the range of 172 to 174 °C.
As for `CC(C)(C)NC(=O)CP(=O)(O)O`, the melting point was in the range of 163 to 165 °C.
As to `CC1(C)OC(=O)C(CO)(c2ccc(Cl)cc2Cl)O1` (stereo not given), the melting point lay within 182 to 185 °C.
For the compound `CCC(OC(C)=O)c1ccc(Cl)c2nc3n(c12)CCCN3c1ccc(OC)nc1C` (stereo not given), the melting point was in the range of 157 to 159 °C.
As for `Cc1ccc(CSc2nc3cc4c(cc3[nH]2)CCC4)nc1`, the figure is 157 to 158 °C; as for `CCC(CC)N(Cc1ccc(C(=O)O)cc1)S(=O)(=O)c1ccc(OC)cc1`, 86 to 87 °C; as for `CC(CS)C(=O)N(CC(=O)O)C1CC1` (stereo not given), 89 to 91 °C.
For `O=[N+]([O-])c1ccc(F)c(Br)c1O`, the melting point was 65 to 66 °C.
As for `COc1cc(OC)cc(N2CCN(C(=S)Nc3cc(C(C)O)c(C)cc3OC)CC2)c1` (stereo not given), the melting point lay within 146 to 148 °C.
In the case of `COc1ccc([N+](=O)[O-])c(C=CN2CCCC2)c1`, the melting point lay within 71 to 72 °C.
`O=c1[nH]c2cc(Cl)ccc2c(=O)n1S(=O)(=O)c1cc(Cl)ccc1Cl`: the melting point was 254 to 256 °C.
The compound `COC(=O)CNC(=O)c1nc(Cl)c2ccccc2c1O` yielded a melting point of 129 °C.
In turn, `N#CC(c1cccc(Cl)c1)N1CCOCC1` (stereo not given) gave a melting point of 72 to 73 °C.
As to `N#Cc1cc2c(cc1C(F)(F)F)[nH]c(=O)c(=O)n2OCc1ccccc1`, the melting point amounted to 265 °C.
`COc1ccc(-n2nc(CCC(=O)NCC(=O)O)cc2-c2ccc(Cl)cc2)cc1`: the melting point lay within 186 to 188 °C.
As for `CCOC(=O)N1c2cc(OC)c(OC)cc2[C@H](NC(=O)Cc2cc(C(F)(F)F)cc(C(F)(F)F)c2)C[C@@H]1C` (relative stereo), the figure is 157 to 159 °C; as for `Fc1ccc(-c2ccc3nnn(Cc4ccc5ncccc5c4)c3n2)cc1`, 153 to 156 °C.
Turning to `CONC(=O)c1[nH]c(C)c(-c2nc3ccc(Oc4ccccc4)cc3[nH]2)c1C`, the melting point is 166 to 168 °C.
Compound `Cc1cccc(-c2n[nH]cc2-c2ccc(F)c(-c3cnn(CCN4CCOCC4)c3)c2)n1` displayed a melting point of 124 °C.
Compound `CN1CCC=C(c2nnn(C)n2)C1` returned a melting point of 86 to 87 °C.
Regarding `O=C(N[C@H](Cc1ccc(C(F)(F)F)cc1)[C@H](O)c1ccc(F)cc1)c1ccc(C(F)(F)F)cc1` (racemic), the melting point lay within 162 to 163 °C.
Under `N#CCC(=O)c1ccc(C(F)(F)F)cc1[N+](=O)[O-]` stands 79.5 to 80.5 °C; under `N#Cc1cnc2sc(-c3ccc(C=O)cc3)cc2c1Nc1ccc2[nH]ccc2c1`, above 260 °C; under `CC(=O)N1CCC(c2nn(-c3ccc(C(F)(F)F)cc3)c3ccccc23)CC1`, 148 to 150 °C.

For the origin of these results see a melting point compilation (Tetko et al.; mined from patent text by program, amines drawn as free bases though some values may be those of a salt).
